Results reported in article PMC5218480 (PLoS ONE, 2017).

Tested on: MV-4-11 cells
Assay: Gene expression microarray analysis (Affymetrix PrimeView) and GSEA
Assay type: cell-based, human
Set-up: RFU PODN (11730768_x_at) / Fold change /veh PODN (11730768_x_at) / RFU LINC00158 (11744669_a_at) / Fold change /veh LINC00158 (11744669_a_at) / RFU DUSP10 (11751237_a_at) / Fold change /veh DUSP10 (11751237_a_at) / RFU ID3 (11757404_x_at) / Fold change /veh ID3 (11757404_x_at) / RFU PLEKHG5 (11737974_s_at) / Fold change /veh PLEKHG5 (11737974_s_at) / RFU LRRC4B (11730491_at) / Fold change /veh LRRC4B (11730491_at) / RFU GIMAP4 (11747438_a_at) / Fold change /veh GIMAP4 (11747438_a_at) / RFU KRT8 (11758183_x_at) / Fold change /veh KRT8 (11758183_x_at) / RFU CNN1 (11734310_a_at) / Fold change /veh CNN1 (11734310_a_at) / RFU VPS37D (11726825_at) / Fold change /veh VPS37D (11726825_at) / RFU C10orf10 (11716522_x_at) / Fold change /veh C10orf10 (11716522_x_at) / RFU KIR2DL2 /// KIR2DL4 /// KIR2DL5A /// KIR2DL5B /// KIR2DS1 /// KIR2DS2 /// KIR2DS3 /// KIR2DS4 /// KIR3DL3 /// KIR3DL3 /// KIR3DS1 (11738374_at) / Fold change /veh KIR2DL2 /// KIR2DL4 /// KIR2DL5A /// KIR2DL5B /// KIR2DS1 /// KIR2DS2 /// KIR2DS3 /// KIR2DS4 /// KIR3DL3 /// KIR3DL3 /// KIR3DS1 (11738374_at) / RFU C1QL1 (11718748_at) / Fold change /veh C1QL1 (11718748_at) / RFU TMPRSS4 (11747572_a_at) / Fold change /veh TMPRSS4 (11747572_a_at) / RFU HAMP (11756126_x_at) / Fold change /veh HAMP (11756126_x_at) / RFU RNFT2 (11725882_a_at) / Fold change /veh RNFT2 (11725882_a_at) / RFU NR4A2 (11747474_a_at) / Fold change /veh NR4A2 (11747474_a_at) / RFU ABCC12 (11746883_a_at) / Fold change /veh ABCC12 (11746883_a_at) / RFU TMEM136 (11760407_x_at) / Fold change /veh TMEM136 (11760407_x_at) / RFU CLDN22 /// WWC2 (11732394_at) / Fold change /veh CLDN22 /// WWC2 (11732394_at) / RFU HLA-DPB1 (11760878_x_at) / Fold change /veh HLA-DPB1 (11760878_x_at) / RFU SPINT1 (11716480_a_at) / Fold change /veh SPINT1 (11716480_a_at) / RFU GAP43 (11754022_s_at) / Fold change /veh GAP43 (11754022_s_at) / RFU A4GNT (11735810_at) / Fold change /veh A4GNT (11735810_at) / RFU PRB3 (11715151_x_at) / Fold change /veh PRB3 (11715151_x_at) / RFU TUBB4B (11761932_at) / Fold change /veh TUBB4B (11761932_at) / RFU CAPN14 (11732068_a_at) / Fold change /veh CAPN14 (11732068_a_at) / RFU TMCC2 (11721928_a_at) / Fold change /veh TMCC2 (11721928_a_at) / RFU IRGQ (11745062_a_at) / Fold change /veh IRGQ (11745062_a_at) / RFU FAM174B (11720279_a_at) / Fold change /veh FAM174B (11720279_a_at) / RFU TMPRSS4 (11748680_a_at) / Fold change /veh TMPRSS4 (11748680_a_at) / RFU FAM212B (11763350_a_at) / Fold change /veh FAM212B (11763350_a_at) / RFU PLEKHG5 (11743358_a_at) / Fold change /veh PLEKHG5 (11743358_a_at) / RFU ZSCAN30 (11745921_a_at) / Fold change /veh ZSCAN30 (11745921_a_at) / RFU CMKLR1 (11741424_a_at) / Fold change /veh CMKLR1 (11741424_a_at) / RFU LOC101060620 /// MAPK8IP1 (11723275_at) / Fold change /veh LOC101060620 /// MAPK8IP1 (11723275_at) / RFU SPTSSB (11747773_x_at) / Fold change /veh SPTSSB (11747773_x_at) / RFU PRSS12 (11739890_at) / Fold change /veh PRSS12 (11739890_at) / RFU BIN1 (11741810_x_at) / Fold change /veh BIN1 (11741810_x_at) / RFU WNT11 (11732464_a_at) / Fold change /veh WNT11 (11732464_a_at) / RFU C10orf10 (11716521_a_at) / Fold change /veh C10orf10 (11716521_a_at) / RFU C5orf56 (11738089_at) / Fold change /veh C5orf56 (11738089_at) / RFU CYB561 (11721691_x_at) / Fold change /veh CYB561 (11721691_x_at) / RFU ANKRD19P (11752326_a_at) / Fold change /veh ANKRD19P (11752326_a_at) / RFU OR2T12 /// OR2T33 /// OR2T8 (11738714_s_at) / Fold change /veh OR2T12 /// OR2T33 /// OR2T8 (11738714_s_at) / RFU VCAN (11748164_a_at) / Fold change /veh VCAN (11748164_a_at) / RFU JSRP1 (11732532_at) / Fold change /veh JSRP1 (11732532_at) / RFU KRTAP10-11 (11738290_x_at) / Fold change /veh KRTAP10-11 (11738290_x_at) / RFU MYO3A (11730013_a_at) / Fold change /veh MYO3A (11730013_a_at) / RFU EBF3 (11725865_a_at) / Fold change /veh EBF3 (11725865_a_at) / RFU CAMK2N1 (11719241_x_at) / Fold change /veh CAMK2N1 (11719241_x_at) / RFU C5orf56 (11738088_a_at) / Fold change /veh C5orf56 (11738088_a_at) / RFU OLFML3 (11715873_a_at) / Fold change /veh OLFML3 (11715873_a_at) / RFU LOC100653217 /// NTM (11731650_a_at) / Fold change /veh LOC100653217 /// NTM (11731650_a_at) / RFU MAPK11 (11762145_a_at) / Fold change /veh MAPK11 (11762145_a_at) / RFU FIZ1 (11724087_x_at) / Fold change /veh FIZ1 (11724087_x_at) / RFU OASL (11726364_x_at) / Fold change /veh OASL (11726364_x_at) / RFU SOX15 (11748057_x_at) / Fold change /veh SOX15 (11748057_x_at) / RFU CD79A (11719716_a_at) / Fold change /veh CD79A (11719716_a_at) / RFU HIST1H1D (11736915_at) / Fold change /veh HIST1H1D (11736915_at) / RFU CASKIN2 (11723855_a_at) / Fold change /veh CASKIN2 (11723855_a_at) / RFU LOC730098 (11760151_x_at) / Fold change /veh LOC730098 (11760151_x_at) / RFU OR4N2 (11742367_at) / Fold change /veh OR4N2 (11742367_at) / RFU PRRT2 (11749266_a_at) / Fold change /veh PRRT2 (11749266_a_at) / RFU SNX32 (11753110_a_at) / Fold change /veh SNX32 (11753110_a_at) / RFU CDHR5 (11726645_a_at) / Fold change /veh CDHR5 (11726645_a_at) / RFU RCAN1 (11760418_a_at) / Fold change /veh RCAN1 (11760418_a_at) / RFU FAM167A (11723789_a_at) / Fold change /veh FAM167A (11723789_a_at) / RFU FAM26E (11764081_at) / Fold change /veh FAM26E (11764081_at) / RFU ISYNA1 (11749810_s_at) / Fold change /veh ISYNA1 (11749810_s_at) / RFU ACY1 (11761880_at) / Fold change /veh ACY1 (11761880_at) / RFU 11764098_at / Fold change /veh 11764098_at / RFU SAMD14 (11745864_x_at) / Fold change /veh SAMD14 (11745864_x_at) / RFU NPB (11741838_a_at) / Fold change /veh NPB (11741838_a_at) / RFU TMPRSS6 (11731388_a_at) / Fold change /veh TMPRSS6 (11731388_a_at) / RFU KRTAP10-2 (11738614_at) / Fold change /veh KRTAP10-2 (11738614_at) / RFU ARHGAP8 /// PRR5-ARHGAP8 (11727945_x_at) / Fold change /veh ARHGAP8 /// PRR5-ARHGAP8 (11727945_x_at) / RFU KRTAP5-7 /// NADSYN1 (11734609_at) / Fold change /veh KRTAP5-7 /// NADSYN1 (11734609_at) / RFU RASL12 (11751679_a_at) / Fold change /veh RASL12 (11751679_a_at) / RFU CDKN2B (11736163_a_at) / Fold change /veh CDKN2B (11736163_a_at) / RFU PRF1 (11729649_at) / Fold change /veh PRF1 (11729649_at) / RFU, ZNF638 /// ZNF638-IT1 / Fold change vs veh, ZNF638 /// ZNF638-IT1 / RFU, PANK3 / Fold change vs veh, PANK3 / RFU, SH3YL1 / Fold change vs veh, SH3YL1 / RFU, ZEB2 / Fold change vs veh, ZEB2 / RFU, NRIP1 / Fold change vs veh, NRIP1 / RFU, PTTG1IP / Fold change vs veh, PTTG1IP / RFU, CAPN2 / Fold change vs veh, CAPN2 / RFU, MED14 / Fold change vs veh, MED14 / RFU, SNORA58 / Fold change vs veh, SNORA58 / RFU, C1orf63 / Fold change vs veh, C1orf63 / RFU, LRRFIP1 / Fold change vs veh, LRRFIP1 / RFU, NDUFAF7 / Fold change vs veh, NDUFAF7 / RFU, SLC12A2 / Fold change vs veh, SLC12A2 / RFU, IBTK / Fold change vs veh, IBTK / RFU, ESF1 / Fold change vs veh, ESF1 / Fold change vs veh, TMEM50B / RFU, TAOK1 / Fold change vs veh, TAOK1 / RFU, ACBD3 / Fold change vs veh, ACBD3 / RFU, TMA16 / Fold change vs veh, TMA16 / RFU, RWDD3 / Fold change vs veh, RWDD3 / RFU, BCAT1 / Fold change vs veh, BCAT1 / RFU, EDEM3 / Fold change vs veh, EDEM3 / RFU, TMEM33 / Fold change vs veh, TMEM33 / RFU, WDR75 / Fold change vs veh, WDR75 / RFU, AHCTF1 / Fold change vs veh, AHCTF1 / RFU, TFRC / Fold change vs veh, TFRC / RFU, ZDHHC17 / Fold change vs veh, ZDHHC17 / RFU, NOM1 / Fold change vs veh, NOM1 / RFU, ARL8B / Fold change vs veh, ARL8B / RFU, ZBTB11 / Fold change vs veh, ZBTB11 / RFU, TAMM41 / Fold change vs veh, TAMM41 / RFU, KIAA1704 /// LOC100996395 / Fold change vs veh, KIAA1704 /// LOC100996395 / RFU, ING1 / Fold change vs veh, ING1 / RFU, TRMT61B / Fold change vs veh, TRMT61B / RFU, FUBP3 / Fold change vs veh, FUBP3 / RFU, TP53 / Fold change vs veh, TP53 / RFU, TNKS2 / Fold change vs veh, TNKS2 / RFU, ZFP14 / Fold change vs veh, ZFP14 / RFU, ACTR2 / Fold change vs veh, ACTR2 / RFU, PPP3R1 / Fold change vs veh, PPP3R1 / RFU, PIK3R1 / Fold change vs veh, PIK3R1 / RFU, HNRNPA1 / Fold change vs veh, HNRNPA1 / RFU, RNF170 / Fold change vs veh, RNF170 / RFU, ZNF28 / Fold change vs veh, ZNF28 / RFU, RNGTT / Fold change vs veh, RNGTT / RFU, OGT / Fold change vs veh, OGT / RFU, BRD1 / Fold change vs veh, BRD1 / RFU, MARS / Fold change vs veh, MARS / RFU, ZNF655 / Fold change vs veh, ZNF655 / RFU, FAHD1 / Fold change vs veh, FAHD1 / RFU, BDP1 / Fold change vs veh, BDP1 / RFU, LRRCC1 / Fold change vs veh, LRRCC1 / RFU, ARID1A / Fold change vs veh, ARID1A / RFU, ZNF146 / Fold change vs veh, ZNF146 / RFU, ZNF330 / Fold change vs veh, ZNF330 / RFU, GPN3 / Fold change vs veh, GPN3 / RFU, C9orf123 / Fold change vs veh, C9orf123 / RFU, N4BP2L2 / Fold change vs veh, N4BP2L2 / RFU, ARFIP1 / Fold change vs veh, ARFIP1 / RFU, FAM179B / Fold change vs veh, FAM179B / RFU, BCL10 / Fold change vs veh, BCL10 / RFU, UHRF1BP1L / Fold change vs veh, UHRF1BP1L / RFU, BET1 / Fold change vs veh, BET1 / RFU, CNOT2 / Fold change vs veh, CNOT2 / RFU, ZNF268 / Fold change vs veh, ZNF268 / Fold change vs veh, ZNF507 / RFU, DGCR2 / Fold change vs veh, DGCR2 / RFU, WDSUB1 / Fold change vs veh, WDSUB1 / Fold change vs veh, HSP90B1 /// MIR3652 / RFU, ADSS / Fold change vs veh, ADSS / RFU, GK / Fold change vs veh, GK / RFU, ZNF148 / Fold change vs veh, ZNF148 / RFU, TAF9 / Fold change vs veh, TAF9 / RFU, SLC1A5 / Fold change vs veh, SLC1A5 / RFU, SLMO2 / Fold change vs veh, SLMO2 / RFU, ABCC4 / Fold change vs veh, ABCC4 / RFU, LOC101060439 /// RAP1B / Fold change vs veh, LOC101060439 /// RAP1B / RFU, RFX7 / Fold change vs veh, RFX7 / RFU, GTPBP10 / Fold change vs veh, GTPBP10 / RFU, CNEP1R1 / Fold change vs veh, CNEP1R1 / RFU, BIVM-ERCC5 /// ERCC5 / Fold change vs veh, BIVM-ERCC5 /// ERCC5 / RFU, ILF3 / Fold change vs veh, ILF3 / RFU 11762660_at / Fold change /veh 11762660_at / RFU VCAN (11757783_s_at) / Fold change /veh VCAN (11757783_s_at) / RFU DDX43 (11728927_at) / Fold change /veh DDX43 (11728927_at) / RFU KRT8 (11758188_x_at) / Fold change /veh KRT8 (11758188_x_at) / RFU NKD1 (11759106_at) / Fold change /veh NKD1 (11759106_at) / RFU SRD5A1 (11742802_a_at) / Fold change /veh SRD5A1 (11742802_a_at) / RFU TPSAB1 /// TPSB2 (11721975_s_at) / Fold change /veh TPSAB1 /// TPSB2 (11721975_s_at) / RFU GSTM3 (11746129_a_at) / Fold change /veh GSTM3 (11746129_a_at) / RFU IL23R (11737362_x_at) / Fold change /veh IL23R (11737362_x_at) / RFU TMEM51 (11727254_a_at) / Fold change /veh TMEM51 (11727254_a_at) / RFU PIWIL2 (11732686_x_at) / Fold change /veh PIWIL2 (11732686_x_at) / RFU ORM1 (11744905_x_at) / Fold change /veh ORM1 (11744905_x_at) / RFU CCDC152 (11743942_at) / Fold change /veh CCDC152 (11743942_at) / RFU ECM1 (11717891_a_at) / Fold change /veh ECM1 (11717891_a_at) / RFU IL23R (11748794_a_at) / Fold change /veh IL23R (11748794_a_at) / RFU TNFAIP8L3 (11732012_x_at) / Fold change /veh TNFAIP8L3 (11732012_x_at) / RFU MBOAT4 (11741988_at) / Fold change /veh MBOAT4 (11741988_at) / RFU 11764193_at / Fold change /veh 11764193_at / RFU TMEM53 (11763286_at) / Fold change /veh TMEM53 (11763286_at) / RFU MAGEB2 (11727129_at) / Fold change /veh MAGEB2 (11727129_at) / RFU TMEM200A (11744735_a_at) / Fold change /veh TMEM200A (11744735_a_at) / RFU CCDC152 (11751479_a_at) / Fold change /veh CCDC152 (11751479_a_at) / RFU FAM211A (11726209_a_at) / Fold change /veh FAM211A (11726209_a_at) / RFU RGS16 (11746705_a_at) / Fold change /veh RGS16 (11746705_a_at) / RFU VCAN (11755009_s_at) / Fold change /veh VCAN (11755009_s_at) / RFU RHOB (11743442_s_at) / Fold change /veh RHOB (11743442_s_at) / RFU RGS16 (11720943_a_at) / Fold change /veh RGS16 (11720943_a_at) / RFU RGS16 (11720944_at) / Fold change /veh RGS16 (11720944_at) / RFU, VPS4B / Fold change vs veh, VPS4B / RFU, CREB1 / Fold change vs veh, CREB1 / RFU, DNAJC13 / Fold change vs veh, DNAJC13 / RFU, GNAQ / Fold change vs veh, GNAQ / RFU, CDK5R1 / Fold change vs veh, CDK5R1 / RFU, ZRANB3 / Fold change vs veh, ZRANB3 / RFU, CUL4A / Fold change vs veh, CUL4A / RFU, CCNY / Fold change vs veh, CCNY / RFU, UFL1 / Fold change vs veh, UFL1 / RFU, COG3 / Fold change vs veh, COG3 / RFU, DIAPH2 / Fold change vs veh, DIAPH2 / RFU, SKA2 / Fold change vs veh, SKA2 / RFU, AFF3 / Fold change vs veh, AFF3 / RFU, LMF1 / Fold change vs veh, LMF1 / RFU, IPO11 / Fold change vs veh, IPO11 / RFU, DFFB / Fold change vs veh, DFFB / RFU, FOXP1 / Fold change vs veh, FOXP1 / RFU, CARD8 / Fold change vs veh, CARD8 / RFU, STRN3 / Fold change vs veh, STRN3 / RFU, ADK / Fold change vs veh, ADK / RFU, RASSF2 / Fold change vs veh, RASSF2 / RFU, WIPF1 / Fold change vs veh, WIPF1 / RFU, LARP1B / Fold change vs veh, LARP1B / RFU, RASA1 / Fold change vs veh, RASA1 / RFU, RB1 / Fold change vs veh, RB1 / RFU, PPFIA1 / Fold change vs veh, PPFIA1 / RFU, MAT2A / Fold change vs veh, MAT2A / RFU, CCT5 / Fold change vs veh, CCT5 / RFU, WDR92 / Fold change vs veh, WDR92 / RFU, CUX1 / Fold change vs veh, CUX1 / RFU, TTC7A / Fold change vs veh, TTC7A / RFU, TMEM135 / Fold change vs veh, TMEM135 / RFU, DEPTOR / Fold change vs veh, DEPTOR / RFU, CPM / Fold change vs veh, CPM / RFU, DNAJB6 / Fold change vs veh, DNAJB6 / RFU, CACNA2D3 / Fold change vs veh, CACNA2D3 / RFU, DTX4 / Fold change vs veh, DTX4 / RFU, TFCP2 / Fold change vs veh, TFCP2 / RFU, GMCL1 /// GMCL1P1 / Fold change vs veh, GMCL1 /// GMCL1P1 / RFU, AEBP2 / Fold change vs veh, AEBP2 / RFU, SNHG1 /// SNORD22 /// SNORD25 /// SNORD26 /// SNORD27 /// SNORD28 /// SNORD29 /// SNORD31 / Fold change vs veh, SNHG1 /// SNORD22 /// SNORD25 /// SNORD26 /// SNORD27 /// SNORD28 /// SNORD29 /// SNORD31 / Fold change (Aza/veh), C12orf56 (ProbeSet 11735607_a_at) / Fold change (ACY-1035/veh), C12orf56 (ProbeSet 11735607_a_at) / Fold change (Aza/veh), FGFR1OP (ProbeSet 11751329_s_at) / Fold change (ACY-1035/veh), FGFR1OP (ProbeSet 11751329_s_at) / Fold change (Aza/veh), VPS36 (ProbeSet 11739960_a_at) / Fold change (ACY-1035/veh), VPS36 (ProbeSet 11739960_a_at) / RFU SYPL1 (11715823_x_at) / Fold change /veh SYPL1 (11715823_x_at) / RFU IGFBP7 (11715501_s_at) / Fold change /veh IGFBP7 (11715501_s_at) / RFU REEP3 (11722064_at) / Fold change /veh REEP3 (11722064_at) / RFU IGLL1 (11728026_x_at) / Fold change /veh IGLL1 (11728026_x_at): dose or concentration left out as unconfirmed
Details: MV-4-11 cells, 48 hours

SMILES: Nc1ncn([C@@H]2O[C@H](CO)[C@@H](O)[C@H]2O)c(=O)n1 [azacitidine]
- RFU TMEM136 (11760407_x_at): 16.07 RFU
